Results from patent US9012431B2, “Boron-containing small molecules as anti-inflammatory agents” (Anacor Pharmaceuticals, Inc., priority 2008, dated 2015).
Structures can show the parent of a compound that is named as a salt.

Tests used:
TNF-α = assay: Cytokine assay, TNF-α release from PBMC; format: cell-based; conditions: 1 μg/mL LPS, supernatant at 24 hours
Method in brief: (§1)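 Cryopreserved human PBMC were thawed and resuspended in RPMI 1640 with 10% FBS. Test compounds, diluted from 10 mM DMSO stocks, were applied in triplicate at 10, 1, 0.1 and 0.01 μM, and cytokine release was measured.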

IL-2 = assay: Cytokine assay, IL-2 release from PBMC; format: cell-based; conditions: human PBMC, 20 ug/mL PHA, supernatant at 24 hours
Method in brief: as §1

IFN-γ = assay: Cytokine assay, IFN-γ release from PBMC; format: cell-based; conditions: human PBMC, 20 ug/mL PHA, supernatant at 24 hours
Method in brief: as §1

IL-5 = assay: Cytokine assay, IL-5 release from PBMC; format: cell-based; conditions: human PBMC, 20 ug/mL PHA, supernatant at 48 hours
Method in brief: as §1

IL-10 = assay: Cytokine assay, IL-10 release from PBMC; format: cell-based; conditions: human PBMC, 20 ug/mL PHA, supernatant at 48 hours
Method in brief: as §1

[1] = tested on: T1, PDE4 partially purified from human U-937 myeloid leukemia cells; assay: PDE4 Assay (enzyme from U-937 cells, [3H]cAMP); format: biochemical; conditions: PDE4 from U-937 cells, Tris buffer pH 7.5, 20 minutes at 25° C.
T1 construct: PDE4 partially purified from human U-937 myeloid leukemia cells was used

[2] = tested on: CD-1 (Crl.) derived male mice; assay: Phorbol Ester Induced Mouse Ear Edema Model; format: in vivo; conditions: topical, 6 h; for inhibition in vivo at 1 mg: 1 mg/ear × 2 topical
Procedure: 1. In Vivo Anti-Inflammation Activity in Phorbol Ester Induced Mouse Ear Edema Model
[…] Dexamethasone (1 mg/ear×2) used as the positive control was administered topically to test animals using the same application schedule. Ear swelling was then measured by a Dyer model micrometer gauge at 6 hours after PMA application as an index of inflammation. Percent inhibition was calculated according to the formula: [(Ic−It)/Ic]×100%, where Ic and It refer to increase of ear thickness (mm) in control and treated mice, respectively.

[3] = Acetone:Ethanol/1:1, ear swelling 6 hours after PMA

Row | SMILES | IC50 (TNF-α; Homo sapiens, PBMC, 24 h) [nM] | IC50 (IL-2) [nM] | IC50 (IFN-γ) [nM] | IC50 (IL-5) [nM] | IC50 (IL-10) [nM] | IC50 [1] [nM] | inhibition in vivo at 0.028 mg ([2]; 0.028 mg/ear × 2 topical, 95% Ethanol, ear swelling 6 hours after PMA) [%] | inhibition in vivo at 0.28 mg ([2]; 0.28 mg/ear × 2 topical, 95% Ethanol, ear swelling 6 hours after PMA) [%] | inhibition in vivo at 1 mg [2, 3] [%] | inhibition in vivo at 1 mg ([2]; vehicle not given, ear swelling 6 hours after PMA) [%] | IC50 (TNF-α; human PBMC) [nM]
1 | N#Cc1ccc(Oc2ccc3c(c2)COB3O)nc1OC1CCCC1 [D100, 2-Cyclopentyloxy-6-(1-hydroxy-1,3-dihydro-benzo[c][1,2]oxaborol-5-yloxy)-nicotinonitrile] | < 1000 | < 1000 | < 1000 | < 1000 | < 1000 | < 1000 | < 30 | 30 to 60 |  |  | 
2 | N#Cc1ccc(Oc2ccc3c(c2)COB3O)c(CO)c1 [D24, 5-[4-Cyano-2-(hydroxymethyl)phenoxy]-1,3-dihydro-1-hydroxy-2,1-benzoxaborole] | 1000 to 4000 |  |  |  |  |  |  |  | 60 to 90 |  | 
3 | O=Cc1ccc(Oc2ccc3c(c2)COB3O)nc1 [D69, 6-(1-Hydroxy-1,3-dihydrobenzo[c][1,2]oxaborol-5-yloxy)nicotinaldehyde] | 1000 to 4000 | 1000 to 4000 | 1000 to 4000 |  |  | < 1000 |  |  |  | 30 to 60 | 
4 | N#Cc1ccc(Oc2ccc3c(c2)COB3O)c(OCc2ccccn2)c1 [D31, 2-((5-cyano-2-(1-hydroxy-1,3-dihydrobenzo[c][1,2]oxaborol-5-yloxy)phenoxy)methyl)pyridine hydrochloride] | 1000 to 4000 |  |  |  |  |  |  |  | 30 to 60 |  | 
5 | N#Cc1ccc(Oc2ccc3c(c2)B(O)OC3)cc1 [C18, 6-(4-Cyanophenoxy)-1,3-dihydro-1-hydroxy-2,1-benzoxaborole] | > 10000 | > 10000 | > 10000 | > 10000 | > 10000 | > 10000 |  |  |  |  | 
6 | CCOC(=O)c1cc(F)c(Oc2ccc3c(c2)COB3O)cc1Cl [D53, 5-(5-Chloro-2-fluoro-4-ethoxycarbonylphenoxy)-1-hydroxy-2,1-benzoxaborole] | < 1000 | < 1000 | < 1000 | 1000 to 4000 | 1000 to 4000 | < 1000 |  |  |  |  | 
7 | N#Cc1ccc(Oc2ccc3c(c2)COB3O)nc1 [D82, 6-(1-hydroxy-1,3-dihydrobenzo[c][1,2]oxaborol-5-yloxy)nicotinonitrile] |  | < 1000 | < 1000 | 1000 to 4000 | < 1000 | < 1000 |  |  |  |  | < 1000
8 | CCS(=O)(=O)c1ccc(Oc2ccc3c(c2)COB3O)cc1 [D105, 5-(4-(ethylsulfonyl)phenoxy)benzo[c][1,2]oxaborol-1 (3H)-ol] | 1000 to 4000 | 1000 to 4000 | 1000 to 4000 | 4000 to 10000 | 1000 to 4000 | 1000 to 4000 |  |  |  |  | 
9 | N#Cc1ccc(Oc2ccc3c(c2)COB3O)cc1OCC(=O)N1CCOCC1 [D41, 4-(1-Hydroxy-1,3-dihydro-benzo[c][1,2]oxaborol-5-yloxy)-2-(2-morpholin-4-yl-2-oxo-ethoxy)-benzonitrile] | 1000 to 4000 | < 1000 | < 1000 | 1000 to 4000 | 1000 to 4000 | < 1000 |  |  |  |  | 
10 | CCOC(=O)COc1cc(Oc2ccc3c(c2)COB3O)ccc1C#N [D38, [2-Cyano-5-(1-hydroxy-1,3-dihydro-benzo[c][1,2]oxaborol-5-yloxy)-phenoxy]-acetic acid ethyl ester] | < 1000 | < 1000 | < 1000 | < 1000 | 1000 to 4000 | < 1000 |  |  |  |  | 
11 | COc1ccc(Oc2ccc3c(c2)COB3O)cc1OC [D94, 5-(3,4-dimethoxyphenoxy)benzo[c][1,2]oxaborol-1 (3H)-ol] | 1000 to 4000 | 1000 to 4000 | 1000 to 4000 | 1000 to 4000 | > 10000 | < 1000 |  |  |  |  | 
12 | COC(=O)c1cc(F)c(Oc2ccc3c(c2)COB3O)c(F)c1 [D52, 5-(2,6-Difluoro-4-methoxycarbonylphenoxy)-1-hydroxy-2,1-benzoxaborole] | > 10000 | 4000 to 10000 | 4000 to 10000 | > 10000 | > 10000 | 1000 to 4000 |  |  |  |  | 
